Source: US20260325561A1, “4'-SUBSTITUTED NUCLEOSIDES AND NUCLEOTIDES AS ANTIVIRAL AGENTS” (THE SCRIPPS RESEARCH INSTITUTE, priority 2023, published 2026)

How the values were obtained:
HRV 14 = assay: microbe, parasite or virus in culture; type: cell-based, Human Rhinovirus 14 strain 1059; settings: for EC50: Rhinovirus B, H1-HeLa, 48 h, read-out: HRV / H1 HeLa B 14 EC50
SARS-CoV-2 = assay: microbe, parasite or virus in culture; type: cell-based, SARS-CoV-2 strain USA-WA1/2020; settings: for EC50: Severe acute respiratory syndrome coronavirus 2, HeLa-ACE2, 24 h, read-out: SARS-CoV-2 / HeLa-ACE2 EC50
in vitro [1] = settings: human, h1 hela cells
MERS-CoV = type: cell-based, MERS-CoV EMC
YFV = assay: microbe, parasite or virus in culture; type: cell-based, YFV strain 17D; settings: for EC50: Yellow fever virus, HepG2, 24 h, read-out: YFV / HepG2 EC50
SARS-CoV-1 = type: cell-based
HCMV = assay: HCMV/HFF antiviral assay; type: cell-based; settings: Human betaherpesvirus 5, HFF
CHIKV = assay: microbe, parasite or virus in culture; type: cell-based, CHIKV strain 181/25; settings: for EC50: Chikungunya virus, HepG2, 24 h, read-out: CHIKV / HepG2 EC50
Polio PV-1 = type: cell-based, PV-1 CHAT
Flu A H1N1 = assay: Antiviral activity against Flu A H1N1; type: cell-based, Flu A H1N1 California/07/2009; settings: Flu A H1N1, FIG. 1
Protocol: (§1) All other antiviral assays were run at Utah State/Justin Julander through NIAID Preclinical Services. The following virus strains and cell lines were used:
(§2) Compounds were added to cells prior to addition of virus at an appropriate MOI to cause visible CPE. […] For compounds with an SI.5, a virus yield reduction assay was conducted, where supernatant collected from the CPE assay was titered for virus. The EC90 was calculated as the amount of compound needed to reduce the virus titer by 1 log 10.

in vitro [2] = settings: human, hct-8 cells
in vitro [3] = settings: human, mrc5 cells
RSV A2 = assay: microbe, parasite or virus in culture; type: cell-based; settings: for EC50: human respiratory syncytial virus, HEp-2, 72 h, read-out: RSV A2 / Hep2 EC50
HRV 16 = assay: microbe, parasite or virus in culture; type: cell-based, Human Rhinovirus 16 strain 11757; settings: for EC50: Rhinovirus A, H1-HeLa, 48 h, read-out: HRV / H1 HeLa A16 EC50
HCoV-OC43 = assay: microbe, parasite or virus in culture; type: cell-based, Human Coronavirus; settings: for EC50: Betacoronavirus 1, OC43, HCT-8, 48 h, read-out: HCoV-OC43/HCT-8 EC50
DENV-2 = assay: microbe, parasite or virus in culture; type: cell-based, DENV-2 16681; settings: for EC50: Dengue virus, DENV2, HepG2, 24 h, read-out: DENV-2 / HepG2 EC50; for SI (selectivity), DENV-2 HepG2 assay: SI=CC50/EC50
HCoV-229E = assay: microbe, parasite or virus in culture; type: cell-based; settings: for EC50: Human coronavirus 229E, MRC5, 120 h, read-out: HCoV-229E/MRC5 EC50
ZIKV = assay: microbe, parasite or virus in culture; type: cell-based, ZIKV MR766; settings: for EC50: Zika virus, HepG2, 24 h, read-out: ZIKV / HepG2 EC50
Polio PV-3 = type: cell-based, PV-3 WM-3
in vitro [4] = settings: human, hepg2 cells
in vitro [5] = settings: human, hep2 cells
MEV = assay: Antiviral activity against MEV; type: cell-based, MEV CC; settings: FIG. 1
Protocol: as §1, §2

Cytotoxicity, HFF = type: cell-based; settings: human, hff cells; read-out: HCMV/HFF CC50
in vitro [6] = settings: human, hela-ace2 cells
COXV-B3 = assay: Antiviral activity against COXV-B3; type: cell-based, COXV-B3 HA 201933; settings: COXV-B3, FIG. 1
Protocol: as §1, §2

[7] = cited from earlier work
DENV = settings: cited from earlier work
dengue [8] = settings: cited from earlier work
dengue [9] = settings: cited from earlier work; remark: listed apart in the source
dengue [10] = settings: cited from earlier work; remark: listed apart in the source
[11] = tested on: dengue 2′-0-methyltransferase NS5 domain; settings: role: inhibitor; cited from earlier work
[12] = mouse or rhesus monkey model; cited from earlier work
RNA virus infections = settings: cited from earlier work
[13] = Cytotoxicity from screening; type: cell-based

Nc1ncnc2c1ccn2[C@@H]1O[C@](F)(CO)[C@@H](O)[C@H]1O [Example 1, (2S,3S,4R,5R)-5-(4-amino-7H-pyrrolo[2,3-d]pyrimidin-7-yl)-2-fluoro-2-(hydroxymethyl)tetrahydrofuran-3,4-diol]
efficacy vs RDV parent nucleosides and N-hydroxycytidine, HRV14 (HRV 14; HRV14, FIG. 1): more efficacious than RDV parent nucleosides and N-hydroxycytidine | EC50 (HRV 14): 100 to 1000 nM | activities and selectivity vs known compounds with the same MOA, SARS-CoV-2 (SARS-CoV-2; SARS-CoV-2): improved activities and selectivity | efficacy vs RDV parent nucleosides and N-hydroxycytidine, SARS-CoV-2 (SARS-CoV-2; SARS-CoV-2, FIG. 1): more efficacious than RDV parent nucleosides and N-hydroxycytidine | EC50 (SARS-CoV-2): < 100 nM | CC50 (in vitro [1]): 1000 to 10000 nM | efficacy vs RDV parent nucleosides and N-hydroxycytidine, MERS-CoV (MERS-CoV): more efficacious than RDV parent nucleosides and N-hydroxycytidine | efficacy vs RDV parent nucleosides and N-hydroxycytidine, YFV (YFV): more efficacious than RDV parent nucleosides and N-hydroxycytidine | EC50 (YFV): < 100 nM | efficacy vs RDV parent nucleosides and N-hydroxycytidine, SARS-CoV-1 (SARS-CoV-1): more efficacious than RDV parent nucleosides and N-hydroxycytidine | EC50 (HCMV): 1000 to 10000 nM | EC50 (CHIKV): < 100 nM | efficacy vs RDV parent nucleosides and N-hydroxycytidine, CHIKV (CHIKV; alphavirus CHIKV, FIG. 1): more efficacious than RDV parent nucleosides and N-hydroxycytidine | efficacy vs RDV parent nucleosides and N-hydroxycytidine, Polio PV-1 (Polio PV-1): more efficacious than RDV parent nucleosides and N-hydroxycytidine | efficacy vs RDV parent nucleosides and N-hydroxycytidine, Flu A H1N1 (Flu A H1N1): more efficacious than RDV parent nucleosides and N-hydroxycytidine | CC50 (in vitro [2]): 1000 to 10000 nM | CC50 (in vitro [3]): 10000 to 99000 nM | efficacy vs RDV parent nucleosides and N-hydroxycytidine, RSV A2 (RSV A2; RSV A2, FIG. 1): more efficacious than RDV parent nucleosides and N-hydroxycytidine | EC50 (RSV A2): < 100 nM | efficacy vs RDV parent nucleosides and N-hydroxycytidine, HRV16 (HRV 16; HRV16, FIG. 1): more efficacious than RDV parent nucleosides and N-hydroxycytidine | EC50 (HRV 16): 100 to 1000 nM | EC50 (HCoV-OC43): 100 to 1000 nM | efficacy vs RDV parent nucleosides and N-hydroxycytidine, HCoV-OC43 (HCoV-OC43; HCoV-OC43, FIG. 1): more efficacious than RDV parent nucleosides and N-hydroxycytidine | activities and selectivity vs known compounds with the same MOA, DENV (DENV-2; DENV): improved activities and selectivity | activities and selectivity compared to tubercidin and NITD-008 (DENV-2; DENV2 HepG2 assay): improved activities and selectivity compared to tubercidin and NITD-008 | efficacy vs RDV parent nucleosides and N-hydroxycytidine, DENV-2 (DENV-2; DENV-2, FIG. 1): more efficacious than RDV parent nucleosides and N-hydroxycytidine | EC50 (DENV-2): < 100 nM | efficacy vs RDV parent nucleosides and N-hydroxycytidine, HCoV-229E (HCoV-229E; HCoV-229E, FIG. 1): more efficacious than RDV parent nucleosides and N-hydroxycytidine | EC50 (HCoV-229E): 100 to 1000 nM | efficacy vs RDV parent nucleosides and N-hydroxycytidine, ZIKV (ZIKV; ZIKV, FIG. 1): more efficacious than RDV parent nucleosides and N-hydroxycytidine | EC50 (ZIKV): < 100 nM | efficacy vs RDV parent nucleosides and N-hydroxycytidine, Polio PV-3 (Polio PV-3): more efficacious than RDV parent nucleosides and N-hydroxycytidine | CC50 at 72 h (in vitro [4]): 1000 to 10000 nM | CC50 (in vitro [5]): 1000 to 10000 nM | efficacy vs RDV parent nucleosides and N-hydroxycytidine, MEV (MEV): more efficacious than RDV parent nucleosides and N-hydroxycytidine | CC50 (Cytotoxicity, HFF): 1000 to 10000 nM | CC50 at 24 h (in vitro [6]): 1000 to 10000 nM | efficacy vs RDV parent nucleosides and N-hydroxycytidine, COXV-B3 (COXV-B3): more efficacious than RDV parent nucleosides and N-hydroxycytidine

OC[C@@]1(F)O[C@@H](n2ccc3c(Cl)ncnc32)[C@H](O)[C@@H]1O [Example 4, (2S,3S,4R,5R)-5-(4-chloro-7H-pyrrolo[2,3-d]pyrimidin-7-yl)-2-fluoro-2-(hydroxymethyl)tetrahydrofuran-3,4-diol]
EC50 (HRV 14): 100 to 1000 nM | EC50 (SARS-CoV-2): 1000 to 10000 nM | CC50 (in vitro [1]): 10000 to 99000 nM | EC50 (YFV): < 100 nM | EC50 (HCMV): > 10000 nM | EC50 (CHIKV): 100 to 1000 nM | CC50 (in vitro [2]): 10000 to 99000 nM | CC50 (in vitro [3]): > 99000 nM | EC50 (RSV A2): 100 to 1000 nM | EC50 (HRV 16): 100 to 1000 nM | EC50 (HCoV-OC43): 100 to 1000 nM | EC50 (DENV-2): < 100 nM | EC50 (HCoV-229E): > 10000 nM | EC50 (ZIKV): 100 to 1000 nM | CC50 at 72 h (in vitro [4]): 10000 to 99000 nM | CC50 (in vitro [5]): 10000 to 99000 nM | CC50 (Cytotoxicity, HFF): 10000 to 99000 nM | CC50 at 24 h (in vitro [6]): 10000 to 99000 nM

NC(=O)c1cn([C@@H]2O[C@](F)(CO)[C@@H](O)[C@H]2O)c2ncncc12 [Example 24, 7-((2R,3R,4S,5S)-5-fluoro-3,4-dihydroxy-5-(hydroxymethyl)tetrahydrofuran-2-yl)-7H-pyrrolo[2,3-d]pyrimidine-5-carboxamide]
EC50 (HRV 14): 1000 to 10000 nM | EC50 (SARS-CoV-2): 100 to 1000 nM | CC50 (in vitro [1]): 10000 to 99000 nM | EC50 (YFV): 100 to 1000 nM | EC50 (HCMV): > 10000 nM | CC50 (in vitro [2]): 10000 to 99000 nM | CC50 (in vitro [3]): > 99000 nM | EC50 (RSV A2): 100 to 1000 nM | EC50 (HRV 16): > 10000 nM | EC50 (HCoV-OC43): 100 to 1000 nM | EC50 (DENV-2): < 100 nM | EC50 (HCoV-229E): > 10000 nM | EC50 (ZIKV): 100 to 1000 nM | CC50 at 72 h (in vitro [4]): 1000 to 10000 nM | CC50 (in vitro [5]): 10000 to 99000 nM | CC50 (Cytotoxicity, HFF): 10000 to 99000 nM | CC50 at 24 h (in vitro [6]): 1000 to 10000 nM

OC[C@@]1(F)O[C@@H](n2cc(Br)c3cncnc32)[C@H](O)[C@@H]1O [Example 25, (2S,3S,4R,5R)-5-(5-bromo-7H-pyrrolo[2,3-d]pyrimidin-7-yl)-2-fluoro-2-(hydroxymethyl)tetrahydrofuran-3,4-diol]
EC50 (HRV 14): > 10000 nM | EC50 (SARS-CoV-2): 100 to 1000 nM | CC50 (in vitro [1]): 1000 to 10000 nM | EC50 (YFV): < 100 nM | EC50 (HCMV): 1000 to 10000 nM | CC50 (in vitro [2]): < 1000 nM | CC50 (in vitro [3]): > 99000 nM | EC50 (RSV A2): 100 to 1000 nM | EC50 (HRV 16): > 10000 nM | EC50 (HCoV-OC43): 100 to 1000 nM | EC50 (DENV-2): < 100 nM | EC50 (HCoV-229E): > 10000 nM | EC50 (ZIKV): < 100 nM | CC50 at 72 h (in vitro [4]): < 1000 nM | CC50 (in vitro [5]): 10000 to 99000 nM | CC50 (Cytotoxicity, HFF): > 99000 nM | CC50 at 24 h (in vitro [6]): < 1000 nM

C#C[C@@]1(O)[C@H](O)[C@@H](CO)O[C@H]1n1ccc2c(N)ncnc21 [NITD-008, reference compound]
two-week tox study outcome [7]: failed | efficacy in DENV-infected mouse model (DENV): good efficacy | SI (selectivity), DENV-2 HepG2 assay (DENV-2): 52 | selectivity compared to tubercidin (DENV-2; DENV-2 HepG2 assay, FIG. 1): improved selectivity compared to tubercidin

NC(=O)c1ncn([C@@H]2O[C@H](CO)[C@@H](O)[C@H]2O)n1 [Ribavirin]
activity against dengue in tissue culture (dengue [8]): works against dengue in tissue culture | protection against dengue, rhesus monkey model (dengue [9]): did not show protection | protection against dengue, mouse model (dengue [10]): did not show protection | inhibition of dengue 2′-0-methyltransferase NS5 domain [11]: inhibiting | adverse effects induced [12]: induced anemia and thrombocytosis | effect against a range of RNA virus infections (RNA virus infections): effective

Nc1ncnc2c1ccn2[C@@H]1O[C@H](CO)[C@@H](O)[C@H]1O [Tubercidin, reference compound]
antiviral potency against SARS-CoV-2 (SARS-CoV-2; SARS-CoV-2, screening): high antiviral potency | cytotoxicity from screening [13]: significant cytotoxicity | antiviral potency against DENV (DENV-2; DENV, screening): high antiviral potency | SI (selectivity), DENV-2 HepG2 assay (DENV-2): 2
